Experimental data published in patent publication EP0603240B1, “SAFENING HERBICIDAL PYRAZOLYLSULFONYLUREAS” (priority 1991, dated 1993).

Legend:
[1] = tested on: corn; experiment: Example 20, Procedure II: Herbicide No. 1 + EPTC or ERADICANE EXTRA with Antidote Nos. 5 and 15; type: in vivo
Method: (§1) Containers were filled and compacted with a fumigated silt loam top soil to a depth of about 1.3 cm from the top of the container. A first container was designated as an untreated control, a second container was designated as a herbicide control, and a third container was designated as a herbicide + antidote test container. Each of the containers was seeded with a crop species. A measured amount of herbicide dispersed or dissolved in acetone was applied to a measured quantity of soil. To this same quantity of soil treated with herbicide, there was added a measured amount of antidote dispersed or dissolved in acetone. The quantity of soil treated with the herbicide and antidote was thoroughly mixed to incorporate the herbicide and antidote in the soil uniformly. The seed bed in the third container of soil was covered with the soil treated with the herbicide and antidote and the container was leveled. For each test series, the seed beds of the first and second containers were likewise covered by soil layers. the cover layer of the first container was not treated with herbicide or antidote.
(§2) The containers were then placed on a bench in a greenhouse and sub-irrigated as required for the duration of the test. […] Plant response is measured in terms of percent injury. Antidote efficacy is indicated as the difference in plant injury by the herbicide(s) without the antidote and with the antidote.
(§3) This procedure is the same as Procedure I, but modified in the manner that after incorporation of the chemicals (herbicide and antidote) the containers with the covered seedbed were treated with an initial overhead irrigation equivalent to 0.6 cm rainfall, then subsequently sub-irrigated as required on greenhouse benches.
(§4) This example describes experiments designed to test two generally efficacious antidotal compounds, i.e., Antidote Nos. 5 and 15, against the herbicidal action of the sulfonylurea compound, Herbicide No. 1, and the commercial herbicides EPTC (Herbicide No. 4) and ERADICANE® EXTRA (EPTC + R-29148, Antidote No. 5). Procedure II above was used in conducting these experiments. Formulations of EPTC and ERADICANE EXTRA were applied onto soil cover layers (to be applied over seed beds), followed by sequential pipetting of Herbicide No. 1 and Antidote No. 15. The soil was mixed to homogeneity and spread over the seed beds followed by 0.6 cm of overhead irrigation.

[2] = tested on: corn; experiment: Example 26, field trials, preemergence surface application (PRE): corn growth reduction; type: in vivo
Method: In order to better understand and to confirm the results of greenhouse tests with herbicidal compositions comprising representative compounds according to Formula I and an antidote with and without a co-herbicide, a large number of field trials were conducted. This example provides a summary of those field trials.
The primary purpose of the field trials summarized herein was to ascertain the amount of corn injury caused by a compound according to Formula I. viz. Herbicide No. 1, with and without a co-herbicide of the α-chloroacetanilide class, viz., Herbicide Nos. 6 and 7, and the extent that any corn injury could be safened by a dichloroacetamide antidotal compound, viz., Antidote No. 15.
Corn injury is generally expressed, in broad terms, in stand reduction, growth reduction, malformed plants and other more specific effects. For purposes of the summary here, the results of a plurality of field trials are expressed in terms of growth reduction (GR), i.e., a significant reduction in plant height of the corn stand. A common criteria for commercially-acceptable corn injury is an amount equal to or less than 10% malformed plants or stand reduction and for present reporting purposes, no greater than about 15% growth reduction. The corn injury/safening described for these field trials refers to commercially-unacceptable to commercially-acceptable performance.
In the field trials from a wide distribution of trial locations, soil types (all having in excess of 2% organic matter), climatic effects, etc., the test chemicals were applied as tank mixes in various modes of application, i.e., pre-plant incorporation (PPI) and preemergence surface application (PRE). Test plots were small plots with three replications in a randomized complete block design. Observations were made and recorded in a period of from 31-50 days after treatment.

[3] = tested on: velvetleaf (Abutilon theophrasti); experiment: Example 20, Procedure II: Herbicide No. 1 + EPTC or ERADICANE EXTRA with Antidote Nos. 5 and 15; type: in vivo
Method: as §1, §2, §3
In the series of greenhouse tests described below, for routine screening purposes the herbicide/antidote compositions were tested in crop/weed combinations involving corn as the crop and either or both of the weeds barnyardgrass (Echinochloa crusgalli), a monocotyledonous weed, and velvetleaf (Abutilon theophrasti), a dicotyledonous weed. In the tables below, these weeds are indicated by the symbols "BYG" and "VL", respectively.
as §4

[4] = tested on: corn; experiment: Example 25, greenhouse post-emergence test: Antidote Nos. 1 and 2 against Herbicide Nos. 1-3; type: in vivo, Corn (Pioneer 3424 variety); conditions: for % Inhibition Corn: no herbicide; for inhibition at 0.25 g/ha / inhibition at 0.74 g/ha / inhibition at 2.5 g/ha / inhibition at 0.07 g/ha: Zea mays
Method: Additional tests were conducted in the greenhouse in order to evaluate the antidotal efficacy of Antidote Nos. 1 (dichlormid) and 2 (naphthalic anhydride) in protecting corn from the herbicidal activity of Herbicide Nos. 1-3 (i.e., NC-319, NC-319 EX and NC-311, respectively). The chemicals were tested in both preemergence and post-emergence modes of application. The herbicides were prepared and applied as wettable powders; dichlormid was applied as an emulsifiable concentrate, while the naphthalic anhydride was applied as a coating on the corn seed prior to planting.
Corn seeds (Pioneer 3424 variety) were planted in alluvial soil containing compost and fertilizer in pots 12 cm. in diameter. Test chemicals were applied with a spray gun at the spray volume rate of 11.2 l/ha at the time of seeding in the preemergence tests and seven (7) days after seeding in the post-emergence tests, when the check (control) plants were at the 16-20 cm., 3.0-3.2 leaf stage, and naphthalic anhydride coated seed grown plants were at the 14-16 cm., 2.8-3.0 leaf stage.
Test data from the preemergence tests are shown in Table 25A and from the post-emergence tests in Table 25B. In the tables, the concentration of chemicals is shown in terms of active ingredient in grams per hectare (G/ha); concentrations of the naphthalic anhydride were not measured per se, but were present as in conventional, normally-coated applications. Corn injury is shown in terms of percent inhibition of growth.

[5] = Herbicide No.1 0.56 kg/ha + No. 4 2.24 kg/ha, Antidote No. 15 0.18 kg/ha
[6] = Herbicide No.1 0.56 kg/ha + No. 4 4.48 kg/ha, Antidote No. 15 0.35 kg/ha
[7] = Herbicide No.1 0.56 kg/ha + No. 4 6.78 kg/ha, Antidote No. 15 0.56 kg/ha
[8] = Herbicide No.1 2.24 kg/ha + No. 4 2.24 kg/ha, Antidote No. 15 0.18 kg/ha
[9] = Herbicide No.1 2.24 kg/ha + No. 4 4.48 kg/ha, Antidote No. 15 0.35 kg/ha
[10] = Herbicide No.1 2.24 kg/ha + No. 4 6.78 kg/ha, Antidote No. 15 0.56 kg/ha
[11] = Herbicide No.1 0.56 kg/ha + ERADICANE EXTRA 2.24 kg/ha
[12] = Herbicide No.1 0.56 kg/ha + ERADICANE EXTRA 4.48 kg/ha
[13] = Herbicide No.1 0.56 kg/ha + ERADICANE EXTRA 6.72 kg/ha
[14] = Herbicide No.1 0.56 kg/ha + No. 4 2.24 kg/ha, no antidote
[15] = Herbicide No.1 0.56 kg/ha + No. 4 4.48 kg/ha, no antidote
[16] = Herbicide No.1 0.56 kg/ha + No. 4 6.72 kg/ha, no antidote
[17] = Herbicide No.1 0.56 kg/ha alone
[18] = Herbicide No.1 2.24 kg/ha + ERADICANE EXTRA 2.24 kg/ha
[19] = Herbicide No.1 2.24 kg/ha + ERADICANE EXTRA 4.48 kg/ha
[20] = Herbicide No.1 2.24 kg/ha + ERADICANE EXTRA 6.72 kg/ha
[21] = Herbicide No.1 2.24 kg/ha + No. 4 2.24 kg/ha, no antidote
[22] = Herbicide No.1 2.24 kg/ha + No. 4 4.48 kg/ha, no antidote
[23] = Herbicide No.1 2.24 kg/ha + No. 4 6.72 kg/ha, no antidote
[24] = Herbicide No.1 2.24 kg/ha alone

CC1(C)OC(c2ccco2)CN1C(=O)C(Cl)Cl (stereo not shown) [Antidote No. 15, Oxazolidine, 3-(dichloroacetyl)-5-(2-furanyl)-2,2-dimethyl]
% Injury Corn [1, 5]: 5% | % Injury Corn [1, 6]: 15% | % Injury Corn [1, 7]: 0% | % Injury Corn [1, 8]: 35% | % Injury Corn [1, 9]: 15% | % Injury Corn [1, 10]: 15% | crop injury, assessment in words ([2]; Antidote No. 15 to Herbicide No. 1 ratio increased to 3:1): reduced crop injury even further | corn growth reduction (GR) ([2]; Herbicide No. 1 0.07 kg/ha + acetochlor + Antidote No. 15): 8.7% | corn growth reduction (GR) ([2]; Herbicide No. 1 0.14 kg/ha + acetochlor + Antidote No. 15): 8.2% | corn growth reduction (GR) ([2]; Herbicide No. 1 0.28 kg/ha + acetochlor + Antidote No. 15): 14.5% | % Injury VL [3, 5]: 90% | % Injury VL [3, 6]: 95% | % Injury VL [3, 7]: 95% | % Injury VL [3, 8]: 95% | % Injury VL [3, 9]: 95% | % Injury VL [3, 10]: 100%

COC(=O)c1c(Cl)nn(C)c1S(=O)(=O)NC(=O)Nc1nc(OC)cc(OC)n1 [Herbicide No. 1]
corn growth reduction (GR) ([2]; Herbicide No. 1 0.07 kg/ha + acetochlor, no antidote): 9.8% | corn growth reduction (GR) ([2]; Herbicide No. 1 0.14 kg/ha + acetochlor, no antidote): 13.4% | corn growth reduction (GR) ([2]; Herbicide No. 1 0.28 kg/ha + acetochlor, no antidote): 20.3%

COC(=O)c1c(Cl)nn(C)c1S(=O)(=O)NC(=O)Nc1nc(OC)cc(OC)n1 [No.1]
% Injury Corn [1, 11]: 55% | % Injury Corn [1, 12]: 65% | % Injury Corn [1, 13]: 75% | % Injury Corn [1, 14]: 75% | % Injury Corn [1, 15]: 35% | % Injury Corn [1, 16]: 85% | % Injury Corn [1, 17]: 70% | % Injury Corn [1, 18]: 90% | % Injury Corn [1, 19]: 85% | % Injury Corn [1, 20]: 95% | % Injury Corn [1, 21]: 90% | % Injury Corn [1, 22]: 70% | % Injury Corn [1, 23]: 90% | % Injury Corn [1, 24]: 85% | % Injury VL [3, 11]: 95% | % Injury VL [3, 12]: 90% | % Injury VL [3, 13]: 100% | % Injury VL [3, 14]: 95% | % Injury VL [3, 15]: 90% | % Injury VL [3, 16]: 100% | % Injury VL [3, 17]: 95% | % Injury VL [3, 18]: 100% | % Injury VL [3, 19]: 100% | % Injury VL [3, 20]: 95% | % Injury VL [3, 21]: 95% | % Injury VL [3, 22]: 95% | % Injury VL [3, 23]: 100% | % Injury VL [3, 24]: 100%

C=CCN(CC=C)C(=O)C(Cl)Cl [compound 1]
% Inhibition Corn ([4]; Antidote alone (rate printed as -)): 1.4% | inhibition at 0.25 g/ha ([4]; Antidote at 7.41 G/ha with Herbicide No. 1 at 0.25 G/ha): 16.1% | inhibition at 0.74 g/ha ([4]; Antidote at 7.41 G/ha with Herbicide No. 1 at 0.74 G/ha): 16.3% | inhibition at 2.5 g/ha ([4]; Antidote at 7.41 G/ha with Herbicide No. 1 at 2.5 G/ha): 22.4% | inhibition at 0.25 g/ha ([4]; Antidote at 7.41 G/ha with Herbicide No. 2 at 0.25 G/ha): 17.6% | inhibition at 0.74 g/ha ([4]; Antidote at 7.41 G/ha with Herbicide No. 2 at 0.74 G/ha): 15.9% | inhibition at 2.5 g/ha ([4]; Antidote at 7.41 G/ha with Herbicide No. 2 at 2.5 G/ha): 23.7% | inhibition at 0.07 g/ha ([4]; Antidote at 7.41 G/ha with Herbicide No. 3 at 0.07 G/ha): 39.8% | inhibition at 0.25 g/ha ([4]; Antidote at 7.41 G/ha with Herbicide No. 3 at 0.25 G/ha): 73.9% | inhibition at 0.74 g/ha ([4]; Antidote at 7.41 G/ha with Herbicide No. 3 at 0.74 G/ha): 73.1%

O=C1OC(=O)c2cccc3cccc1c23 [compound 2]
% Inhibition Corn ([4]; Antidote alone as seed treatment (concentration not measured)): 14.5% | inhibition at 0.25 g/ha ([4]; Antidote as seed treatment (concentration not measured) with Herbicide No. 1 at 0.25 G/ha): 14.1% | inhibition at 0.74 g/ha ([4]; Antidote as seed treatment (concentration not measured) with Herbicide No. 1 at 0.74 G/ha): 27.3% | inhibition at 2.5 g/ha ([4]; Antidote as seed treatment (concentration not measured) with Herbicide No. 1 at 2.5 G/ha): 16.7% | inhibition at 0.25 g/ha ([4]; Antidote as seed treatment (concentration not measured) with Herbicide No. 2 at 0.25 G/ha): 8% | inhibition at 0.74 g/ha ([4]; Antidote as seed treatment (concentration not measured) with Herbicide No. 2 at 0.74 G/ha): 24.9% | inhibition at 2.5 g/ha ([4]; Antidote as seed treatment (concentration not measured) with Herbicide No. 2 at 2.5 G/ha): 19% | inhibition at 0.07 g/ha ([4]; Antidote as seed treatment (concentration not measured) with Herbicide No. 3 at 0.07 G/ha): 20.4% | inhibition at 0.25 g/ha ([4]; Antidote as seed treatment (concentration not measured) with Herbicide No. 3 at 0.25 G/ha): 33.7% | inhibition at 0.74 g/ha ([4]; Antidote as seed treatment (concentration not measured) with Herbicide No. 3 at 0.74 G/ha): 58.8%
